This is an account of results in US20190070113A1, “Treating Ephrin Receptor A2 (Epha2) Positive Cancer with Targeted Docetaxel-Generating Nano-Liposome Compositions” (Merrimack Pharmaceuticals, Inc., priority 2016, published 2019).

One data set deals with #12424 PDX tumor model. Put plainly: Efficacy in pancreatic patient derived xenograft #12424 (PDX 12424-8P). Particulars: for growth inhibition versus saline control: both dose levels (Gemcitabine 35 and 100 mg/kg; Oxaliplatin 5 and 10 mg/kg).
For data set [1], the system named is human ovarian patient derived model OVx-132. Description: Combination with carboplatin in ovarian patient derived model OVx-132. It is filed as in vivo, Immunodeficient mice. The settings on record: for growth arrest and tumor regression: docetaxel 5 mg/kg, 46scFv-ILs-DTXp3 25 mg/kg, carboplatin 60 mg/kg, combinations dosed 3 days apart, carboplatin first; for Time-to-tumor regrowth (TTR; time for tumor to double its volume): monitored 160 days. The protocol:
Immunodeficient mice were implanted with human ovarian patient derived model OVx-132. Animals randomized into the following experimental groups: Saline, docetaxel at 5 mg/kg, 46scFv-ILs-DTXp3 at 25 mg/kg, carboplatin 60 mg/kg, carboplatin/docetaxel, and carboplatin/46scFv-ILs-DTXp3. For the combinations groups carboplatin/docetaxel and carboplatin/46scFv-ILs-DTXp3 doses used for the monotherapy arms were combined and dosed 3 days a part with carboplatin being dosed first followed by the docetaxel or 46scFv-ILs-DTXp3.
The animals received four tail vein injections, at the intervals of 7 days. Tumor size was monitored once to twice weekly.
Tumor volume(TV)=[(length)×(width)^2]/2
Maximum response was calculated using the following formula where TV is tumor volume:
Max tumor regression=[(TVmin−TVday0)/TVday0]×100
Maximum tumor regression was classified as complete tumor regression (100% regression with no palpable tumor), partial tumor regression (max tumor regression more than 30%) or no tumor regression.
Animals were monitored until tumor regrowth or end of monitoring period (>120 days). Time to regrowth was defined as time for tumor to double its volume. Animals sacrificed prior to tumor volume doubling are censored.

Data set [2] is described as follows: Short-term tolerance test of 46scFv-ILs-DTXp3 with Gemcitabine or Carboplatin. Particulars: for histopathology: individual hepatocyte necrosis: carboplatin combo and mono, gemcitabine combo with 46scFv-ILs-DTXp3 100 mpk; for histopathology: extramedullary hematopoiesis in the spleen: carboplatin mono and combo, Gemcitabine combo with 46scFv-ILs-DTXp3 100 mpk. It counts as in vivo, CD-1 female mice. The protocol:
Gemcitabine and Carboplatin are chemotherapeutic agents likely to be combined with 46scFv-ILs-DTXp3 in the clinic. Gemcitabine alone is well tolerated in mice; most protocols list an MTD for i.p. dosing around 240 mpk q3d. […] The stock concentration of 46scFv-ILs-DTXp3 was 11.09 mg/ml. Carboplatin was purchased from Hospira Inc and used at a stock concentration of 10 mg/ml. Gemcitibine was purchased from Sun Pharam and used at a stock concentration of 38 mg/ml.
CD-1 female mice (7-8 week old) were obtained from Charles River. During the treatment phase mice body weight was monitored daily. In order to assess the effect of drug scheduling on tolerability, animals were treated with a single dose of 46scFv-ILs-DTXp3 followed by a dose of either carboplatin or gemcitabine at various dose levels and starting at different timepoints post 46scFv-ILs-DTXp3 treatment (Table 3). Additionally, a single treatment group treated with carboplatin or gemcitabine was added.
At study end (10 days after last drug dose, i.e. day 10 for 8 h, day 11 for 24 h, and day 13 for 72 h combinations), mice were euthanized with carbon dioxide. Blood was collected by cardiac puncture. Catalyst analysis used an EQUINE-15 clip with an additional individual ALT assay added (Idexx, Westbrook, Mass.). Tissues collected included liver, kidney, spleen, heart, skeletal muscle (with skin attached). Tissues were fixed in 10% neutral buffered formalin ˜24 h, then stored in 70% ethanol. Tissues from mice in the highest-dose groups (all time points) as well as untreated and single-agent controls were shipped to Mass Histology Inc (Worcester, Mass.) for processing, and H&E staining of sectioned tissues. Received slides were scanned at 20X on the aperio bright field scanner.

A further data set can be described thus: Hydrolysis in buffer. It counts as physicochemical. Particulars: 37° C. The protocol:
A volume of a 10 mg/mL solution of drug in DMSO as needed to provide the desired concentration (typically 16 μL to yield a 80 μg/mL solution) (see Table 1) is placed in a glass test tube or 4 mL vial. Additional DMSO may also be added (e.g. 64 μL when using 16 μL of drug solution) to yield a final total DMSO concentration of 4%. The DMSO solutions are mixed by brief vortexing, and then 2 mL (20 mM) HEPES buffer for pH 7.5 and 2 mL of (20 mM) phosphate buffer for pH 2.5 is added and the mixture is vortexed again. The initial pH may be adjusted by addition of HCl or NaOH.
Then 100 μL aliquots of the buffer solution of drug are transferred into HPLC vials and incubated in a 37° C. water bath. The remaining solution is also incubated at 37° C. in 4 mL vials for monitoring of pH.
At each time point 900 μL of 0.1% trifluoroacetic acid (TFA) in acetonitrile (ACN) is added to the HPLC vial and the contents are vortexed. The vials are then placed in an autosampler rack at 4° C. for HPLC analysis.
Time zero data points are typically obtained from a solution of 4 μL DMSO stock in 5 mL of 0.1% TFA/ACN (8 μg/mL).
HPLC analysis is performed on a SYNERGI 4 micron Polar RP-80A, 250×4.6 mm column, using a flow rate of 1 mL./min, a 50 μL injection volume, column temperature of 25° C. and with UV detection at 227 nm. Most compounds are analyzed using a 13 min gradient (Method A) from 30 to 66% acetonitrile in aqueous 0.1% TFA, followed by a 1 min gradient back to 30% and a hold at 30% for 6 minutes. If the retention time is too long for this method, a 20 min gradient (Method B) of 30 to 90% acetonitrile, followed by a 1 min return to 30% and held for 9 min at 30% is employed.
The extent of hydrolysis is reported in Table 4 below as the % PTX or DTX formation based on relative peak areas.

For another data set, the system named is PDX model #14244. Description: Efficacy in patient derived xenograft #14244 (PDX 14244-9P). The settings on record: for maximal tumor response to drug compared to control group: both dose levels. For orientation: Xenograft models place foreign cells or tissue in a host animal.
Data set [3] has as its system Pancreatic PDX model #15010. Description: Efficacy in pancreatic patient derived xenograft #15010 (PDX 15010-P5).
Method: (§1) Experiments were performed according to approved guidelines. CB.17 SCID mice were obtained from Roswell Park Cancer Institute, initially at 6-8 weeks of age. Per treatment group, 8 animals were treated, unless otherwise indicated. Tumor pieces were derived from donor mice and engrafted subcutaneously. Depending on the variability in tumor growth, animals were either randomized to the different arms at one specific timepoint or a rolling randomization was performed in which a subgroup of animals were randomized through a period of time to ensure less variability in starting sizes. Animals were randomized and dosing initiated when tumors reached an average volume of 200-250 mm^3 (range 100-400 mm^3), unless otherwise indicated.
(§2) For efficacy experiments, 46scFv-ILs-DTXp3 were generated as described in composition description.
(§3) Intravenous administration of the indicated doses of each agent was initiated when tumors reached an average volume of 200-250 mm^3 and continued for a total of four weekly doses. Tumor volumes were measured once to twice weekly during the dosing cycle and until tumors regrow or reaching maximum monitoring period of 120-160 days or animals were in poor general health and needed to be sacrificed. The tumor progression was monitored by palpation and caliper measurements of the tumors along the largest (length) and smallest (width) axis twice a week. The tumor sizes were determined twice weekly from the caliper measurements using the formula (Geran, R. I., et al., 1972 Cancer Chemother. Rep. 3:1-88):
(§4) Tumor volume (TV)=[(length)×(width)^2]/2
(§5) Single tumor volume curves for each animal were plotted and two metrics that describe antitumor effects were calculated as follows:
(§6) 1) Max Response=[(minimum TV−TV at day 0)/TV at day 0]×100
(§7) 2) Time to regrowth=Time for the tumor to reach four times its initial size
(§8) All statistical analysis between treatment groups was performed using JMP v11.0 software. For treatment group comparison, two-way ANOVA analysis was performed in conjunction with post hoc Tukey HSD statistical analysis.
The conditions of data set [4]: mice; i.p. dosing q3d; most protocols list; cited from earlier work.

Method for #12424 PDX tumor model: as §1, §2
Intravenous administration of the indicated doses of each agent was initiated when tumors reached an average volume of 200-250 mm^3 and continued for a total of four weekly doses. Tumor volumes were measured once to twice weekly during the dosing cycle and until tumors regrow or reaching maximum monitoring period of 120-160 days or animals were in poor general health and needed to be sacrificed. The tumor progression was monitored by palpation and caliper measurements of the tumors along the largest (length) and smallest (width) axis twice a week.
as §4, §5, §6, §7, §8
Model #12424 was maintained by passaging tumor fragments in immunodeficient mice. This PDX model was at passage 8 for study #12424-8P.
Method for PDX 14244-10P: CB.17 SCID mice were obtained from Roswell Park Cancer Institute, initially at 6-8 weeks of age. Per treatment group, 8 animals were treated, unless otherwise indicated. Tumor pieces were derived from donor mice and engrafted subcutaneously. Depending on the variability in tumor growth, animals were either randomized to the different arms at one specific timepoint or a rolling randomization was performed in which a subgroup of animals were randomized through a period of time to ensure less variability in starting sizes. Animals were randomized and dosing initiated when tumors reached an average volume of 200-250 mm^3 (range 100-400 mm^3), unless otherwise indicated.
Intravenous administration of the indicated doses of each agent was initiated when tumors reached an average volume of 200-250 mm^3 and continued for a total of four weekly doses. Tumor volumes were measured once to twice weekly during the dosing cycle and until tumors regrow or reaching maximum monitoring period of 120-160 days or animals were in poor general health and needed to be sacrificed. The tumor progression was monitored by palpation and caliper measurements of the tumors along the largest (length) and smallest (width) axis twice a week. The tumor sizes were determined twice weekly from the caliper measurements using the formula (Geran, R. I., et al., 1972 Cancer Chemother. Rep. 3:1-88): […]
Method for PDX model #14244: The pancreatic xenograft model series are true xenotransplant models that were directly engrafted from patient tumor resections into SCID mice for propagation and maintained by transplantation of tumor fragments (Hylander et al., 2005, 2013). […] CB.17 SCID mice were obtained from Roswell Park Cancer Institute, initially at 6-8 weeks of age. Per treatment group, 8 animals were treated, unless otherwise indicated. Tumor pieces were derived from donor mice and engrafted subcutaneously. Depending on the variability in tumor growth, animals were either randomized to the different arms at one specific timepoint or a rolling randomization was performed in which a subgroup of animals were randomized through a period of time to ensure less variability in starting sizes. Animals were randomized and dosing initiated when tumors reached an average volume of 200-250 mm^3 (range 100-400 mm^3), unless otherwise indicated.
For efficacy experiments, 46scFv-ILs-DTXp3 were generated as described in composition description. […] MM-398 was generated in house using the final commercial process.
as §3, §4, §5, §6, §7, §8
Model #14244 was maintained by passaging tumor fragments in immunodeficient mice. This PDX model was at passage 9 for study #14244-9P.

Consider `O=c1[nH]cc(F)c(=O)[nH]1` [5-Fluorouracil], for which the “inhibition of tumor growth compared to saline control (time to regrowth)” value in the data set with #12424 PDX tumor model (50 mg/kg, four weekly IV doses) stood at 12 days.

Regarding `N.N.O=C([O-])C1(C(=O)[O-])CCC1.[Pt+2]` [Carboplatin], in data set [1], the “growth arrest and tumor regression” value is “minimal growth arrest and no tumor regression”; the “Time-to-tumor regrowth (TTR; time for tumor to double its volume)” value is given as “minor delay on time to regrowth”. The “weight loss in individual mice at day 6” value in data set [2] (Carboplatin 84 mg/kg dosed 8 h or 24 h after 46scFv-ILs-DTXp3 100 mpk, regained weight by day 10-11) was “at most 10%”. In addition, in data set [2] (highest-dose groups), the “histopathology: individual hepatocyte necrosis” value is given as “increased incidence of individual hepatocyte necrosis (minimal to mild)” and the “histopathology: extramedullary hematopoiesis in the spleen” value is given as “Increased extramedullary hematopoieisis (EMH) in the spleen”. Also, the “histopathology: mitotic rate in the liver” value in data set [2] (carboplatin treated groups, highest-dose groups) is given as “increase in mitotic rate in the liver”.

Take `CCN(CC)CCCC(=O)O[C@@H](C(=O)O[C@H]1C[C@@]2(O)[C@@H](OC(=O)c3ccccc3)[C@@H]3[C@]4(OC(C)=O)CO[C@@H]4C[C@H](O)[C@@]3(C)C(=O)[C@H](O)C(=C1C)C2(C)C)[C@@H](NC(=O)OC(C)(C)C)c1ccccc1.Cl` [Compound 3, 2′-O-(4-Diethylamino Butanoyl) DTX Hydrochloride]: the “Percentage of Hydrolysis (% DTX formation)” value in the data set “Hydrolysis in buffer” (pH 2.5, 0 h) turned out to be 0.00%; in the data set “Hydrolysis in buffer” (pH 2.5, 5 h) it was 0.00%; in the data set “Hydrolysis in buffer” (pH 2.5, 24 h), 0.00%; in “Hydrolysis in buffer” (pH 2.5, 48 h), 0.00%; in “Hydrolysis in buffer” (pH 2.5, 96 h) it was 0%; in the data set “Hydrolysis in buffer” (pH 7.5, 0 h) it was 0.00%. Moreover, the “Percentage of Hydrolysis (% DTX formation)” value in “Hydrolysis in buffer” (pH 7.5, 5 h) was 45.76%; in the data set “Hydrolysis in buffer” (pH 7.5, 24 h), 100.00%; in the data set “Hydrolysis in buffer” (pH 7.5, 48 h), 100.00%; in “Hydrolysis in buffer” (pH 7.5, 96 h), 100%.

As for `CC(=O)O[C@@]12CO[C@@H]1C[C@H](O)[C@@]1(C)C(=O)[C@H](O)C3=C(C)[C@@H](OC(=O)[C@H](OC(=O)CCCN(C)C)[C@@H](NC(=O)OC(C)(C)C)c4ccccc4)C[C@@](O)([C@@H](OC(=O)c4ccccc4)[C@H]21)C3(C)C.Cl` [Compound 4], the “Percentage of Hydrolysis (% DTX formation)” value came out at 0.00% in the data set “Hydrolysis in buffer” (pH 2.5, 0 h); 0.00% in “Hydrolysis in buffer” (pH 2.5, 5 h); 0.00% in “Hydrolysis in buffer” (pH 2.5, 24 h); 0.00% in “Hydrolysis in buffer” (pH 2.5, 48 h); 0% in “Hydrolysis in buffer” (pH 2.5, 96 h); 0.00% in “Hydrolysis in buffer” (pH 7.5, 0 h). Also, the “Percentage of Hydrolysis (% DTX formation)” value in the data set “Hydrolysis in buffer” (pH 7.5, 5 h) is on record as 76.07%; in “Hydrolysis in buffer” (pH 7.5, 24 h), 100.00%; in the data set “Hydrolysis in buffer” (pH 7.5, 48 h), 100.00%; in “Hydrolysis in buffer” (pH 7.5, 96 h) it was 100%.

Turning to `Nc1ccn([C@@H]2O[C@H](CO)[C@@H](O)C2(F)F)c(=O)n1` [Gemcitabine], in the data set on #12424 PDX tumor model, the “growth inhibition versus saline control” value was “statistically insignificant from saline control”. Further, in the data set with PDX model #14244 (35 mg/kg), the “delay of regrowth compared to saline (time to regrowth)” value was “two”. In the data set with PDX model #14244 (100 mg/kg), the “delay of regrowth compared to saline (time to regrowth)” value worked out at 18 days. In addition, the “maximal tumor response to drug compared to control group” value in the data set on PDX model #14244 is reported as “did not demonstrate a significant tumor response to drug”. In data set [2] (Gemcitabine 292 mg/kg, 72 h post-46scFv-ILs-DTXp3), the “growth (body weight)” value was “least growth of the 292 mg/kg groups”. The “ALT and AST” value in data set [2] (Gemcitabine 292 mg/kg, 72 h post-46scFv-ILs-DTXp3, study end) was “elevated ALT and AST at study end”. Besides, in data set [2] (highest-dose groups), the “histopathology: individual hepatocyte necrosis” value was “increased incidence of individual hepatocyte necrosis (minimal to mild)” and the “histopathology: extramedullary hematopoiesis in the spleen” value was “Increased extramedullary hematopoieisis (EMH) in the spleen”. For the same compound, the “toxicity (weight loss or catalyst enzyme profiling different than control mice)” value in data set [2] (mice, following an i.v. dose for 10 days, doses as high as 291.6 mg/kg) is given as “did not find toxicity”. Besides, the “time to regrowth: growth inhibition” value in the data set with PDX 14244-10P (100 mg/kg) was found to be 21.9 days. Further, the “maximal response to therapy (tumor response)” value in the data set on PDX 14244-10P (Gemcitabine monotherapy (100 mg/kg)) is 42.11%. Moreover, in data set [3] (35 mg/kg), the “maximal response: decrease in tumor volume” value is on record as 27% and the “tumor growth inhibition relative to control (time to regrowth)” value is reported as 27 days. Besides, in data set [3] (100 mg/kg), the “maximal response: decrease in tumor volume” value was determined as 37% and the “tumor growth inhibition relative to control (time to regrowth)” value is reported as 37 days. In addition, the MTD result in data set [4] is reported as “around 240 mpk”.

For `O=C1[O][Pt]2([NH][C@@H]3CCCC[C@H]3[NH]2)[O]C1=O` [Oxaliplatin], in the data set on #12424 PDX tumor model, the “growth inhibition versus saline control” value was “statistically insignificant from saline control”. Besides, the “delay of regrowth over control group (time to regrowth)” value with PDX model #14244 (5 mg/kg) was 2 days; in the data set with PDX model #14244 (10 mg/kg), 1 days. Also, the “maximal tumor response to drug compared to control group” value with PDX model #14244 was “did not demonstrate a significant tumor response to drug”. Besides, the “tumor growth inhibition relative to control (time to regrowth)” value in data set [3] (10 mg/kg) is 30 days. The “maximal tumor response to drug versus saline control” value in data set [3] (both treatment doses) is reported as “did not show a statistically significant difference from saline control”.

Regarding `CC(=O)O[C@@]12CO[C@@H]1C[C@H](O)[C@@]1(C)C(=O)[C@H](O)C3=C(C)[C@@H](OC(=O)[C@H](O)[C@@H](NC(=O)OC(C)(C)C)c4ccccc4)C[C@@](O)([C@@H](OC(=O)c4ccccc4)[C@H]21)C3(C)C` [docetaxel], in data set [1], the “growth arrest and tumor regression” value is “minimal growth arrest and no tumor regression”; the “Time-to-tumor regrowth (TTR; time for tumor to double its volume)” value is given as “minor delay on time to regrowth”.
